In this assay the target is T1, Recombinant human renin (Homo sapiens, UniProt P00797).
T1 construct: isolate the active form (residues 67-406); made in house; host or cells: FreeStyle 293-F cells, transient expression of pcDNA3.1(+)/hREN
T1 sequence (P00797 67-406): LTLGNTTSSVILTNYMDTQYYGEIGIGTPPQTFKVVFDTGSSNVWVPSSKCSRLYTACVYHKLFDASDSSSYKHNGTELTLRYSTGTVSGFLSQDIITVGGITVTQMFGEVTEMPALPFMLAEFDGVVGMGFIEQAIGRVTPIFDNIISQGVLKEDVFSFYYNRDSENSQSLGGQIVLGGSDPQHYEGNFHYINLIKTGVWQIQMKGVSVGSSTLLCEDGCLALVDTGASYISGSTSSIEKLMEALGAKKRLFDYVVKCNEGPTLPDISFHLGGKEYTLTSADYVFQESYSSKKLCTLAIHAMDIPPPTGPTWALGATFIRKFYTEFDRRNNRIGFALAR
The assay can be described thus: In vitro enzymatic activity assay of renin inhibitors (fluorescence, QXL520/HiLyteFluo488 peptide substrate). Type of assay: biochemical. The conditions noted are these: recombinant human renin 3 nM, 1 μM substrate, pre-incubated 10 minutes at 37° C., incubation one hour, pH 7.4, 5% DMSO; read-out: IC50 of Exemplified Compounds Against Renin.

Some results are limits rather than exact numbers.

Results on 28 compounds are retold here after patent publication US8148367B2 (Takeda Pharmaceutical Company Limited, priority 2008, dated 2012).

On to `Cc1ccccc1-n1c(-c2ccccc2)c(C(=O)N2CCNCC2)n(CCNS(=O)(=O)c2ccccc2)c1=O` [Example 155, N-(2-(2-oxo-4-Phenyl-5-(piperazine-1-carbonyl)-3-o-tolyl-2,3-dihydro-1H-imidazol-1-yl)ethyl)benzenesulfonamide], for which the half-maximal inhibitory concentration (IC50) (usually the point on the concentration scale where inhibition reaches its midpoint) was > 1000 nM.
To `Cc1ccccc1-n1c(-c2ccccc2)c(C(=O)N2CCNCC2)n(CCCNC(=O)c2ccccc2)c1=O` [Example 156, N-(3-(2-oxo-4-Phenyl-5-(piperazine-1-carbonyl)-3-o-tolyl-2,3-dihydro-1H-imidazol-1-yl)propyl)benzamide] belongs > 1000 nM.
To `O=C(c1c(-c2ccccc2)n([C@H]2CCCC[C@H]2O)c(=O)n1CC1CCCCC1)N1CCNCC1` [Example 157, 1-(Cyclohexylmethyl)-3-((1S,2R)-2-hydroxycyclohexyl)-4-phenyl-5-(piperazine-1-carbonyl)-1H-imidazol-2(3H)-one] belongs > 1000 nM; to `COc1ccccc1-n1c(-c2ccccc2)c(C(=O)N2CCNCC2)n(CCNS(=O)(=O)c2ccccc2)c1=O` [Example 158, N-(2-(3-(2-Methoxyphenyl)-2-oxo-4-phenyl-5-(piperazine-1-carbonyl)-2,3-dihydro-1H-imidazol-1-yl)ethyl)benzenesulfonamide], > 1000 nM.
Turning to `COc1ccccc1-n1c(-c2ccccc2)c(C(=O)N2CCNCC2)n(CCCNC(=O)c2ccccc2)c1=O` [Example 159, N-(3-(3-(2-Methoxyphenyl)-2-oxo-4-phenyl-5-(piperazine-1-carbonyl)-2,3-dihydro-1H-imidazol-1-yl)propyl)benzamide], the half-inhibitory concentration (IC50) was > 1000 nM.
As for `COc1ccccc1-n1c(-c2ccccc2)c(C(=O)N2CCNCC2)n(CC2CCCCC2)c1=O` [Example 160, 1-(Cyclohexylmethyl)-3-(2-methoxyphenyl)-4-phenyl-5-(piperazine-1-carbonyl)-1H-imidazol-2(3H)-one], the figure is > 1000 nM; as for `COc1ccccc1-n1c(-c2ccccc2)c(C(=O)N2CCNCC2)n(CCCNS(=O)(=O)c2ccccc2)c1=O` [Example 161, N-(3-(3-(2-Methoxyphenyl)-2-oxo-4-phenyl-5-(piperazine-1-carbonyl)-2,3-dihydro-1H-imidazol-1-yl)propyl)benzenesulfonamide], 100 to 500 nM.
As to `Cc1ccccc1-n1c(-c2ccccc2)c(C(=O)N2CCNCC2)n(CCCNS(=O)(=O)c2ccccc2)c1=O` [Example 162, N-(3-(2-oxo-4-Phenyl-5-(piperazine-1-carbonyl)-3-o-tolyl-2,3-dihydro-1H-imidazol-1-yl)propyl)benzenesulfonamide], the IC50 lay within 100 to 500 nM.
With `Cc1ccccc1-n1c(-c2ccccc2)c(C(=O)N2CCNCC2)n(CC2CCCCC2)c1=O` [Example 163, 1-(Cyclohexylmethyl)-4-phenyl-5-(piperazine-1-carbonyl)-3-o-tolyl-1H-imidazol-2(3H)-one], the half-inhibitory concentration (IC50) is > 1000 nM.
To `COCCCOc1cccc(-n2c(-c3ccccc3)c(C(=O)N3CCNCC3)n(Cc3ccc(F)c(F)c3)c2=O)c1` [Example 164, 1-(3,4-Difluorobenzyl)-3-(3-(3-methoxypropoxy)phenyl)-4-phenyl-5-(piperazine-1-carbonyl)-1H-imidazol-2(3H)-one] belongs 500 to 1000 nM; to `Cc1ccccc1-n1c(-c2ccccc2)c(C(=O)N2CCNCC2)n(CCCNC(=O)CC(C)C)c1=O` [Example 165, 3-Methyl-N-(3-(2-oxo-4-phenyl-5-(piperazine-1-carbonyl)-3-o-tolyl-2,3-dihydro-1H-imidazol-1-yl)propyl)butanamide], > 1000 nM.
On to `Cc1ccccc1-n1c(-c2ccccc2)c(C(=O)N2CCNCC2)n(CCNC(=O)c2ccccc2)c1=O` [Example 166, N-(2-(2-oxo-4-Phenyl-5-(piperazine-1-carbonyl)-3-o-tolyl-2,3-dihydro-1H-imidazol-1-yl)ethyl)benzamide], for which the IC50 lay in the range of 500 to 1000 nM.
As for `COc1ccccc1-n1c(-c2ccccc2)c(C(=O)N2CCNCC2)n(CCCNC(=O)CC(C)C)c1=O` [Example 167, N-(3-(3-(2-Methoxyphenyl)-2-oxo-4-phenyl-5-(piperazine-1-carbonyl)-2,3-dihydro-1H-imidazol-1-yl)propyl)-3-methylbutanamide], the IC50 was > 1000 nM.
Turning to `COc1ccccc1-n1c(-c2ccccc2)c(C(=O)N2CCNCC2)n(CCNC(=O)c2ccccc2)c1=O` [Example 168, N-(2-(3-(2-Methoxyphenyl)-2-oxo-4-phenyl-5-(piperazine-1-carbonyl)-2,3-dihydro-1H-imidazol-1-yl)ethyl)benzamide], the IC50 was in the range of 100 to 500 nM.
To `COc1ccccc1-n1c(-c2ccccc2)c(C(=O)N2CCNCC2)n(CCNC(=O)CC(C)C)c1=O` [Example 169, N-(2-(3-(2-Methoxyphenyl)-2-oxo-4-phenyl-5-(piperazine-1-carbonyl)-2,3-dihydro-1H-imidazol-1-yl)ethyl)-3-methylbutanamide] belongs > 1000 nM; to `O=C(NCCCn1c(C(=O)N2CCNCC2)c(-c2ccccc2)n(C2CCCC[C@@H]2O)c1=O)c1ccccc1` (stereo partly drawn) [Example 170, N-(3-(3-((2S)-2-Hydroxycyclohexyl)-2-oxo-4-phenyl-5-(piperazine-1-carbonyl)-2,3-dihydro-1H-imidazol-1-yl)propyl)benzamide], > 1000 nM.
As for `O=C(c1c(-c2ccccc2)n(C2CCCC[C@@H]2O)c(=O)n1CCCNS(=O)(=O)c1ccccc1)N1CCNCC1` (stereo partly drawn) [Example 171, N-(3-(3-((2S)-2-Hydroxycyclohexyl)-2-oxo-4-phenyl-5-(piperazine-1-carbonyl)-2,3-dihydro-1H-imidazol-1-yl)propyl)benzenesulfonamide], the figure is > 1000 nM; as for `CC(C)CC(=O)NCCCn1c(C(=O)N2CCNCC2)c(-c2ccccc2)n(C2CCCC[C@@H]2O)c1=O` (stereo partly drawn) [Example 172, N-(3-(3-((2S)-2-Hydroxycyclohexyl)-2-oxo-4-phenyl-5-(piperazine-1-carbonyl)-2,3-dihydro-1H-imidazol-1-yl)propyl)-3-methylbutanamide], > 1000 nM; as for `CC(C)CC(=O)NCCn1c(C(=O)N2CCNCC2)c(-c2ccccc2)n(C2CCCC[C@@H]2O)c1=O` (stereo partly drawn) [Example 173, N-(2-(3-((2S)-2-Hydroxycyclohexyl)-2-oxo-4-phenyl-5-(piperazine-1-carbonyl)-2,3-dihydro-1H-imidazol-1-yl)ethyl)-3-methylbutanamide], > 1000 nM.
Regarding `O=C(NCCCn1c(C(=O)N2CCNCC2)c(-c2ccccc2)n(-c2cccc(N3CCOCC3)c2)c1=O)c1ccccc1` [Example 174], the IC50 is > 1000 nM.
As for `O=C(c1c(-c2ccccc2)n(-c2cccc(N3CCOCC3)c2)c(=O)n1CCCNS(=O)(=O)c1ccccc1)N1CCNCC1` [Example 175, N-(3-(3-(3-Morpholinophenyl)-2-oxo-4-phenyl-5-(piperazine-1-carbonyl)-2,3-dihydro-1H-imidazol-1-yl)propyl)benzenesulfonamide], the figure is 100 to 500 nM; as for `CC(C)CC(=O)NCCCn1c(C(=O)N2CCNCC2)c(-c2ccccc2)n(-c2cccc(N3CCOCC3)c2)c1=O` [Example 176, 3-Methyl-N-(3-(3-(3-morpholinophenyl)-2-oxo-4-phenyl-5-(piperazine-1-carbonyl)-2,3-dihydro-1H-imidazol-1-yl)propyl)butanamide], > 1000 nM; as for `O=C(NCCn1c(C(=O)N2CCNCC2)c(-c2ccccc2)n(-c2cccc(N3CCOCC3)c2)c1=O)c1ccccc1` [Example 177, N-(2-(3-(3-Morpholinophenyl)-2-oxo-4-phenyl-5-(piperazine-1-carbonyl)-2,3-dihydro-1H-imidazol-1-yl)ethyl)benzamide], 500 to 1000 nM.
Regarding `CC(C)CC(=O)NCCn1c(C(=O)N2CCNCC2)c(-c2ccccc2)n(-c2cccc(N3CCOCC3)c2)c1=O` [Example 178, 3-Methyl-N-(2-(3-(3-morpholinophenyl)-2-oxo-4-phenyl-5-(piperazine-1-carbonyl)-2,3-dihydro-1H-imidazol-1-yl)ethyl)butanamide], the IC50 was > 1000 nM.
To `COCCCOc1cccc(-n2c(-c3ccccc3)c(C(=O)N3CCNCC3)n(CCCNC(=O)c3ccccc3)c2=O)c1` [Example 179, N-(3-(3-(3-(3-Methoxypropoxy)phenyl)-2-oxo-4-phenyl-5-(piperazine-1-carbonyl)-2,3-dihydro-1H-imidazol-1-yl)propyl)benzamide] belongs 500 to 1000 nM; to `COCCCOc1cccc(-n2c(-c3ccccc3)c(C(=O)N3CCNCC3)n(CCCNS(=O)(=O)c3ccccc3)c2=O)c1` [Example 180, N-(3-(3-(3-(3-Methoxypropoxy)phenyl)-2-oxo-4-phenyl-5-(piperazine-1-carbonyl)-2,3-dihydro-1H-imidazol-1-yl)propyl)benzenesulfonamide], 100 to 500 nM; to `COCCCOc1cccc(-n2c(-c3ccccc3)c(C(=O)N3CCNCC3)n(CCCNC(=O)CC(C)C)c2=O)c1` [Example 181, N-(3-(3-(3-(3-Methoxypropoxy)phenyl)-2-oxo-4-phenyl-5-(piperazine-1-carbonyl)-2,3-dihydro-1H-imidazol-1-yl)propyl)-3-methylbutanamide], > 1000 nM.
Regarding `COCCCOc1cccc(-n2c(-c3ccccc3)c(C(=O)N3CCNCC3)n(CCNC(=O)c3ccccc3)c2=O)c1` [Example 182, N-(2-(3-(3-(3-Methoxypropoxy)phenyl)-2-oxo-4-phenyl-5-(piperazine-1-carbonyl)-2,3-dihydro-1H-imidazol-1-yl)ethyl)benzamide], the IC50 lay within 100 to 500 nM.
